Reference: patent publication US20250241948A1, “Engineered Extracellular Vesicle Delivery Systems and Uses Thereof” (The Texas A&M University System, priority 2020, published 2025)

Experiments:
Type in all cases: cell-based, human
[1] = test system: GFP-expressing A549 cells; experiment: siRNA-mediated GFP knockdown; conditions: lipid-siRNA complexes following electroporation, no EV
Protocol: Quantification of siRNA knockdown in A549 cells: To evaluate the knockdown efficiency of EV-mediated siRNA delivery within the constitutively expressing-GFP-A549 cells over time, GFP fluorescence was measured and quantified using a plate reader (Cytation 5) every day for 12 days (34). To ensure the decrease of green fluorescence intensity is due to the RNA interference of GFP-siRNA in the cells and not caused by the cytotoxicity of the delivery system, each sample type or condition was delivered with scrambled siRNA as a control. The knockdown efficiency was calculated using the below equation: […]
where Fsi is the fluorescence of the well using GFP-siRNA, Fsc is the fluorescence of the well using corresponding scrambled siRNA, Fbg is the fluorescence background of the media without cells, Fosi is the initial fluorescence of the well just prior to delivery for the GFP-siRNA formulations and Fosc is the initial fluorescence of the well prior to delivery of the corresponding scrambled siRNA control group. Commercial Lipofectamine® RNAiMax formulation was used as a positive control to compare the knockdown efficiency between samples. The formulation was prepared according to the manufacturer's instruction. Briefly, 0.3 μl of Lipofectamine® RNAiMax was used to deliver 1 pmol of siRNA. […] Area under the curve (knockdown efficiency vs time) was calculated to determine the difference in duration using GraphPad Prism 7 software.
siRNA knockdown efficiency: To evaluate the knockdown efficiency of LbL-EV mediated siRNA delivery within GFP-expressing A549 cells, GFP fluorescence was measured and quantified using the same apparatus (Cytation 5) every day as previously described (34, 63). The knockdown efficiency of siRNA-GFP was calculated by normalizing each sample type/condition to each individual negative control treated with scrambled siRNA. […] Area under the curve (knockdown efficiency vs time) was calculated by GraphPad Prism 7 software to determine the overall knockdown efficiency of each condition. […]

[2] = test system: CCL-210 cells; experiment: DOX cancer killing efficiency (MTS assay); conditions: CCL210, 3 days incubation
Protocol: (§1) DOX cancer killing efficiency: The effects of DOX-loaded vesicles on A549/CCL210 cells were done by CellTiter 96® Aqueous Cell Proliferation assay (Promega) (MTS assay) to assess relative metabolic activity of the cells. Prior to MTS treatment, DOX-loaded vesicles were incubated with cultured A549/CCL210 cells at 60-70% confluency for 3 days at varying doses. The MTS assays were conducted after incubation for 3 days, following the manufacturer's instructions. Untreated A549 or CCL210 cells were used as positive control groups (assuming 100% metabolic activity) for normalization. Free DOX (unencapsulated) and DOX-loaded PLGA NPs were prepared as comparison groups. To obtain dose-response curves, metabolic activity was plotted versus the amount of DOX administered, which was determined based on spectrophotometric analysis of eEV/LbL-eEV/PLGA NPs. The sigmoidal dose-response curves were fitted with Hill's equation using GraphPad software: […]
(§2) where Max is the Y value at the top plateau and Min is the Y value at the bottom plateau. IC50 (inhibitory concentration, 50%) is the X value when the response is halfway between Min and Max.

[3] = test system: A549 cells; experiment: DOX cancer killing efficiency (MTS assay); conditions: A549, 3 days incubation
Protocol: as §1, §2

Structure (SMILES): CCCCCCCCCCCCCCCC(=O)OC[C@H](COP(=O)([O-])OCC[N+](C)(C)C)OC(=O)CCCCCCCCCCCCCCC [DPPC, 1,2-dipalmitoyl-sn-glycero-3-phosphocholine]
- GFP down-regulation by lipid-siRNA complexes [1]: not able to down-regulate GFP expression

Structure (SMILES): CCCCCCCC/C=C\CCCCCCCC(=O)O[C@H](COC(=O)CCCCCCCCCCCCCCC)COP(=O)([O-])OCC[N+](C)(C)C [POPC, 1-Palmitoyl-2-oleoyl-sn-glycero-3-phosphocholine]
- GFP down-regulation by lipid-siRNA complexes [1]: not able to down-regulate GFP expression

Structure (SMILES): COc1cccc2c1C(=O)c1c(O)c3c(c(O)c1C2=O)C[C@@](O)(C(=O)CO)C[C@@H]3O[C@H]1C[C@H](N)[C@H](O)[C@H](C)O1 [Free DOX, doxorubicin]
- IC10 of DOX [2]: 0.200 μ/ml
- IC50 of DOX [2]: 0.400 ± 0.024 μ/ml
- IC90 of DOX [2]: 0.780 μ/ml
- IC10 of DOX [3]: 0.510 μ/ml
- IC90 of DOX [3]: 0.690 μ/ml

Structure (SMILES): CCCCCCCC/C=C\CCCCCCCC(=O)O[C@H](COC(=O)CCCCCCCCCCCCCCC)COP(=O)(O)OCC(O)CO (some centres unmarked) [POPG, 1-Palmitoyl-2-oleoyl-sn-glycero-3-phosphoglycerol]
- GFP down-regulation by lipid-siRNA complexes [1]: not able to down-regulate GFP expression
